Measured values from US12077503B2, “Substituted cyclic amides and their use as herbicides” (FMC CORPORATION, priority 2015, dated 2024).

What was measured:
Format in all cases: in vivo
corn (Zea mays) [1] = experiment: Test G Post-Emergence Protocol
Protocol: (§1) Seeds of corn (Zea mays), giant foxtail (Setaria faberi), barnyardgrass (Echinochloa crus-galli), ivy-leaved morning glory (Ipomoea hederacea), redroot pigweed (Amaranthus retroflexus) and velvetleaf (Abutilon theophrasti) were sown in standard soil in pots. After cultivation for 8 days under controlled conditions in a glasshouse (at 24/16° C., day/night; 14 hours light; 65% humidity), the plants were sprayed with an aqueous spray solution derived from the formulation of the technical active ingredient in acetone/water (50:50) solution containing 0.5% Tween 20 (polyoxyethylene sorbitan monolaurate, CAS RN 9005-64-5) to give a final dose of 15.625, 62.5 or 250 g/ha of test compound.
(§2) The test plants were then grown on under controlled conditions in a glasshouse (at 24/16° C., day/night; 14 hours light; 65% humidity) and watered twice daily. After 13 days the test was evaluated (100=total damage to plant; 0=no damage to plant). A dash (-) means no test result.

[2] = test system: redroot pigweed (Amaranthus retroflexus); experiment: Test G Post-Emergence Protocol
Protocol: as §1, §2

[3] = test system: ivy-leaved morning glory (Ipomoea hederacea); experiment: Test G Post-Emergence Protocol
Protocol: as §1, §2

[4] = test system: velvetleaf (Abutilon theophrasti); experiment: Test G Post-Emergence Protocol
Protocol: as §1, §2

[5] = test system: giant foxtail (Setaria faberi); experiment: Test G Post-Emergence Protocol
Protocol: as §1, §2

[6] = test system: barnyardgrass (Echinochloa crus-galli); experiment: Test G Post-Emergence Protocol
Protocol: as §1, §2

corn (Zea mays) [7] = experiment: Test G Pre-Emergence Protocol; conditions: evaluated after 13 days
Protocol: as §1, with “one day” for “8 days”
as §2

[8] = test system: redroot pigweed (Amaranthus retroflexus); experiment: Test G Pre-Emergence Protocol; conditions: evaluated after 13 days
Protocol: as §1, with “one day” for “8 days”
as §2

[9] = test system: ivy-leaved morning glory (Ipomoea hederacea); experiment: Test G Pre-Emergence Protocol; conditions: evaluated after 13 days
Protocol: as §1, with “one day” for “8 days”
as §2

[10] = test system: velvetleaf (Abutilon theophrasti); experiment: Test G Pre-Emergence Protocol; conditions: evaluated after 13 days
Protocol: as §1, with “one day” for “8 days”
as §2

[11] = test system: giant foxtail (Setaria faberi); experiment: Test G Pre-Emergence Protocol; conditions: evaluated after 13 days
Protocol: as §1, with “one day” for “8 days”
as §2

[12] = test system: barnyardgrass (Echinochloa crus-galli); experiment: Test G Pre-Emergence Protocol; conditions: evaluated after 13 days
Protocol: as §1, with “one day” for “8 days”
as §2

[13] = 15.625 g ai/ha, evaluated after 13 days (100=total damage to plant; 0=no damage to plant)
[14] = 62.5 g ai/ha, evaluated after 13 days
[15] = 250 g ai/ha, evaluated after 13 days
[16] = 62.5 g ai/ha, 100=total damage to plant, 0=no damage to plant

Cc1nc(Cl)ccc1[C@@H]1CN(C)C(=O)[C@H]1C(=O)Nc1cccc(F)c1F [Compound 1463]
70: damage to plant, Foxtail, Giant (100=total damage to plant; 0=no damage to plant) [5, 15] | plant damage rating, Foxtail, Giant [11, 16]
0: Corn damage rating (corn (Zea mays) [1]; [13]) | Pigweed, Redroot damage rating [2, 13] | Morningglory, Ivy-leaved damage rating [3, 13] | Morningglory, Ivy-leaved damage rating (100=total damage to plant; 0=no damage to plant) [3, 14] | Velvetleaf damage rating [4, 13] | Foxtail, Giant damage rating [5, 13] | Foxtail, Giant damage rating (100=total damage to plant; 0=no damage to plant) [5, 14] | Barnyardgrass damage rating [6, 13] | Barnyardgrass damage rating (100=total damage to plant; 0=no damage to plant) [6, 14] | Corn damage rating (100=total damage to plant; 0=no damage to plant) (corn (Zea mays) [7]; 15.625 g ai/ha) | plant damage rating, Corn (corn (Zea mays) [7]; [16]) | Corn damage rating (100=total damage to plant; 0=no damage to plant) (corn (Zea mays) [7]; 250 g ai/ha) | Pigweed, Redroot damage rating (100=total damage to plant; 0=no damage to plant) ([8]; 15.625 g ai/ha) | plant damage rating, Pigweed, Redroot [8, 16] | Pigweed, Redroot damage rating (100=total damage to plant; 0=no damage to plant) ([8]; 250 g ai/ha) | Morning-glory, Ivy-leaved damage rating (100=total damage to plant; 0=no damage to plant) ([9]; 15.625 g ai/ha) | plant damage rating, Morningglory, Ivy-leaved [9, 16] | Morningglory, Ivy-leaved damage rating (100=total damage to plant; 0=no damage to plant) ([9]; 250 g ai/ha) | Velvetleaf damage rating (100=total damage to plant; 0=no damage to plant) ([10]; 15.625 g ai/ha) | plant damage rating, Velvetleaf [10, 16] | Velvetleaf damage rating (100=total damage to plant; 0=no damage to plant) ([10]; 250 g ai/ha) | Foxtail, Giant damage rating (100=total damage to plant; 0=no damage to plant) ([11]; 15.625 g ai/ha)
10: Corn damage rating (100=total damage to plant; 0=no damage to plant) (corn (Zea mays) [1]; [14]) | damage to plant, Corn (100=total damage to plant; 0=no damage to plant) (corn (Zea mays) [1]; [15]) | Pigweed, Redroot damage rating (100=total damage to plant; 0=no damage to plant) [2, 14] | damage to plant, Pigweed, Redroot (100=total damage to plant; 0=no damage to plant) [2, 15] | Velvetleaf damage rating (100=total damage to plant; 0=no damage to plant) [4, 14] | Barnyardgrass damage rating (100=total damage to plant; 0=no damage to plant) ([12]; 15.625 g ai/ha)
30: damage to plant, Barnyardgrass (100=total damage to plant; 0=no damage to plant) [6, 15]
50: plant damage rating, Barnyardgrass [12, 16]
90: Foxtail, Giant damage rating (100=total damage to plant; 0=no damage to plant) ([11]; 250 g ai/ha) | Barnyardgrass damage rating (100=total damage to plant; 0=no damage to plant) ([12]; 250 g ai/ha)
20: damage to plant, Morningglory, Ivy-leaved (100=total damage to plant; 0=no damage to plant) [3, 15] | damage to plant, Velvetleaf (100=total damage to plant; 0=no damage to plant) [4, 15]

CCOc1cc(F)cc(C2CN(C)C(=O)C2C(=O)Nc2cccc(F)c2F)c1 (centres unmarked) [Compound 1695]
0%: pest or weed control at 15.625 g/ha ([4]; Abutilon theophrasti, post-emergence, 312 h, 15.625 g ai/ha, evaluated after 13 days (100=total damage to plant; 0=no damage to plant), read-out: Velvetleaf damage rating) | pest or weed control at 15.625 g/ha ([8]; Amaranthus retroflexus, pre-emergence, 312 h, 15.625 g ai/ha, read-out: Pigweed, Redroot damage rating (100=total damage to plant; 0=no damage to plant)) | pest or weed control at 62.5 g/ha ([8]; Amaranthus retroflexus, pre-emergence, 312 h, 62.5 g ai/ha, 100=total damage to plant, 0=no damage to plant, read-out: Pigweed, Redroot damage rating) | pest or weed control at 15.625 g/ha ([9]; Ipomoea, pre-emergence, 312 h, 15.625 g ai/ha, read-out: Morningglory, Ivy-leaved damage rating (100=total damage to plant; 0=no damage to plant)) | pest or weed control at 15.625 g/ha ([10]; Abutilon theophrasti, pre-emergence, 312 h, 15.625 g ai/ha, read-out: Velvetleaf damage rating (100=total damage to plant; 0=no damage to plant)) | pest or weed control at 62.5 g/ha ([10]; Abutilon theophrasti, pre-emergence, 312 h, 62.5 g ai/ha, 100=total damage to plant, 0=no damage to plant, read-out: Velvetleaf damage rating)
20%: pest or weed control at 62.5 g/ha ([3]; Ipomoea, post-emergence, 312 h, 62.5 g ai/ha, evaluated after 13 days, 100=total damage to plant, 0=no damage to plant, read-out: Morningglory, Ivy-leaved damage rating)
90%: pest or weed control at 62.5 g/ha ([11]; Setaria faberi, pre-emergence, 312 h, 62.5 g ai/ha, 100=total damage to plant, 0=no damage to plant, read-out: Foxtail, Giant damage rating) | pest or weed control at 62.5 g/ha ([12]; Echinochloa crus-galli, pre-emergence, 312 h, 62.5 g ai/ha, 100=total damage to plant, 0=no damage to plant, read-out: Barnyardgrass damage rating)
80%: pest or weed control at 15.625 g/ha ([5]; Setaria faberi, post-emergence, 312 h, 15.625 g ai/ha, evaluated after 13 days (100=total damage to plant; 0=no damage to plant), read-out: Foxtail, Giant damage rating) | pest or weed control at 62.5 g/ha ([5]; Setaria faberi, post-emergence, 312 h, 62.5 g ai/ha, evaluated after 13 days, 100=total damage to plant, 0=no damage to plant, read-out: Foxtail, Giant damage rating) | pest or weed control at 15.625 g/ha ([6]; Echinochloa crus-galli, post-emergence, 312 h, 15.625 g ai/ha, evaluated after 13 days (100=total damage to plant; 0=no damage to plant), read-out: Barnyardgrass damage rating) | pest or weed control at 62.5 g/ha ([6]; Echinochloa crus-galli, post-emergence, 312 h, 62.5 g ai/ha, evaluated after 13 days, 100=total damage to plant, 0=no damage to plant, read-out: Barnyardgrass damage rating)
30%: plant injury at 15.625 g/ha (corn (Zea mays) [1]; Zea mays, post-emergence, 312 h, 15.625 g ai/ha, evaluated after 13 days (100=total damage to plant; 0=no damage to plant), read-out: Corn damage rating)
70%: plant injury at 62.5 g/ha (corn (Zea mays) [1]; Zea mays, post-emergence, 312 h, 62.5 g ai/ha, evaluated after 13 days, 100=total damage to plant, 0=no damage to plant, read-out: Corn damage rating) | pest or weed control at 15.625 g/ha ([11]; Setaria faberi, pre-emergence, 312 h, 15.625 g ai/ha, read-out: Foxtail, Giant damage rating (100=total damage to plant; 0=no damage to plant))
10%: pest or weed control at 15.625 g/ha ([2]; Amaranthus retroflexus, post-emergence, 312 h, 15.625 g ai/ha, evaluated after 13 days (100=total damage to plant; 0=no damage to plant), read-out: Pigweed, Redroot damage rating) | pest or weed control at 62.5 g/ha ([2]; Amaranthus retroflexus, post-emergence, 312 h, 62.5 g ai/ha, evaluated after 13 days, 100=total damage to plant, 0=no damage to plant, read-out: Pigweed, Redroot damage rating) | pest or weed control at 15.625 g/ha ([3]; Ipomoea, post-emergence, 312 h, 15.625 g ai/ha, evaluated after 13 days (100=total damage to plant; 0=no damage to plant), read-out: Morningglory, Ivy-leaved damage rating) | pest or weed control at 62.5 g/ha ([4]; Abutilon theophrasti, post-emergence, 312 h, 62.5 g ai/ha, evaluated after 13 days, 100=total damage to plant, 0=no damage to plant, read-out: Velvetleaf damage rating) | plant injury at 15.625 g/ha (corn (Zea mays) [7]; Zea mays, pre-emergence, 312 h, 15.625 g ai/ha, read-out: Corn damage rating (100=total damage to plant; 0=no damage to plant))
40%: plant injury at 62.5 g/ha (corn (Zea mays) [7]; Zea mays, pre-emergence, 312 h, 62.5 g ai/ha, 100=total damage to plant, 0=no damage to plant, read-out: Corn damage rating)
50%: pest or weed control at 15.625 g/ha ([12]; Echinochloa crus-galli, pre-emergence, 312 h, 15.625 g ai/ha, read-out: Barnyardgrass damage rating (100=total damage to plant; 0=no damage to plant))
